Results published in patent publication US20220235065A1 (Epizyme, Inc., priority 2016, published 2022).

Columns and labels:
[1] = test system: H3K9me2 in MDA-MB-231 cells; test: MDA-MB-231 H3K9me2 in-cell western assay; assay type: cell-based; conditions: Homo sapiens, read-out: EHMT2 ICW (IC50 μM)
In short: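 MDA-MB-231 cells (3,000/well) exposed to compound for two consecutive 48 h periods at 37 °C, then fixed and stained for H3K9me2, with DRAQ5 as DNA stain and infrared read at 700/800 nm. Percent inhibition was set between DMSO and UNC0638 control wells. IC50 came from triplicate dose–response fits with a four-parameter model, top 100%, bottom 0%.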

EHMT1 = biological target: T1, EHMT1 (Homo sapiens, UniProt Q9H9B1); test: EHMT1 PEP (EHMT1 peptide enzyme assay); assay type: biochemical; conditions: peptide substrate enzyme assay
T1 sequence (Q9H9B1 1-1298): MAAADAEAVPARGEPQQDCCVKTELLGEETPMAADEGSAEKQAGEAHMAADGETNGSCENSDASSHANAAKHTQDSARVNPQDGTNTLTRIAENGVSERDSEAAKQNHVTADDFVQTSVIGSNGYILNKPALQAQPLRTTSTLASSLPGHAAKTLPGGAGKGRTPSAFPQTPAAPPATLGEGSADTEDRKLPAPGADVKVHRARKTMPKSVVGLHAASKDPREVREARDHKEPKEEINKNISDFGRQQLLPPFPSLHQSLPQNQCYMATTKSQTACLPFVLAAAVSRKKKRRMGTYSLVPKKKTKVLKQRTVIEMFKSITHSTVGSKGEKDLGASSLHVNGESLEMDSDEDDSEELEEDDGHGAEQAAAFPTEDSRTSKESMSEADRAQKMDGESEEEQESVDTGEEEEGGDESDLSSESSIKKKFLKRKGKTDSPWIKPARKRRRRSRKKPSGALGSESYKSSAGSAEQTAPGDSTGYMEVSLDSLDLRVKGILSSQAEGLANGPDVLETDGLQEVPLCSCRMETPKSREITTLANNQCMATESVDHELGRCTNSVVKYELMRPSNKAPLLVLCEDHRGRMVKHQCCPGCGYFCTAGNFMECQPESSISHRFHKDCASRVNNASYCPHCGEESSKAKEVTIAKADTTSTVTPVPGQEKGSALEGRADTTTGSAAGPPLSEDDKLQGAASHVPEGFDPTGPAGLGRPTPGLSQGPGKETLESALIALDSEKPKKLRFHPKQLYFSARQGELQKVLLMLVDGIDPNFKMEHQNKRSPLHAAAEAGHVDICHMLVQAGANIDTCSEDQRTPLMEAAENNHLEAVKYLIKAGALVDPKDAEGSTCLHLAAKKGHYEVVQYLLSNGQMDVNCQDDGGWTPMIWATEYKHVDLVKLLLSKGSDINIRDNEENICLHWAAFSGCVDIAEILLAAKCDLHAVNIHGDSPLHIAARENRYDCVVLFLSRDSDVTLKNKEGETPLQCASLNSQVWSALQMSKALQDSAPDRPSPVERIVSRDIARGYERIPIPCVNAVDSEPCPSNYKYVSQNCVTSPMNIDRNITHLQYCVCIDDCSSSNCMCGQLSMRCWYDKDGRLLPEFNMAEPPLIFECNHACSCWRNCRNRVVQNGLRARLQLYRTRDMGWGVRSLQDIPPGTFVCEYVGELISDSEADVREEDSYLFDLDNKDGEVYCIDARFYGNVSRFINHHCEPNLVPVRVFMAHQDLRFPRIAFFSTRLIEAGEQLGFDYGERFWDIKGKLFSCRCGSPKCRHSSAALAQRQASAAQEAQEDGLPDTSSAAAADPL

In the case of `CNc1cc(C)nc(Nc2ccc(OC)c(-n3cc(CN4CCC4)nn3)c2)n1` [Compound 121], the IC50 [1] is reported as 0.1 to 1 µM and the IC50 (EHMT1) is reported as 0.1 to 1 µM.

In the case of `CNCc1cn(-c2cc3nc(NC)cc(C)c3cc2OC)nn1` [Compound 122], the IC50 [1] is reported as 1 to 10 µM and the IC50 (EHMT1) is reported as 0.1 to 1 µM.

With `CNc1cc(C)c2cc(OC)c(-n3cc(C4CCCN4)nn3)cc2n1` (stereo not shown) [Compound 125] the IC50 [1] was 0.1 to 1 µM and the IC50 (EHMT1) was under 0.1 µM.

With `CNC(=O)c1nn(-c2cc(Nc3nc(C)cc(NC)n3)ccc2OC)cc1C` [Compound 134] the IC50 [1] was over 10 µM and the IC50 (EHMT1) was over 10 µM.

`CNc1cc(C)nc(Nc2ccc(OC)c(-n3cc(C4CCCN4C)nn3)c2)n1` (stereo not shown) [Compound 136] gave an IC50 [1] of 0.1 to 1 µM and an IC50 (EHMT1) of 0.1 to 1 µM.

In the case of `CNc1cc(C)nc(Nc2ccc(OC)c(-n3cc(C4CCCN4)nn3)c2)n1` (stereo not shown) [Compound 137, N2-(4-methoxy-3-(4-(pyrrolidin-2-yl)-1H-1,2,3-triazol-1-yl)phenyl)-N4,6-dimethylpyrimidine-2,4-diamine], the IC50 [1] is reported as 0.1 to 1 µM and the IC50 (EHMT1) is reported as under 0.1 µM.

With `CNc1cc(C)nc(Nc2ccc(OC)c(-n3nnc(C)c3CN(C)C)c2)n1` [Compound 138] the IC50 [1] was over 10 µM and the IC50 (EHMT1) was over 10 µM.

With `CNc1cc(C)nc(Nc2ccc(OC)c(-n3nnc(CN(C)C)c3C)c2)n1` [Compound 139] the IC50 [1] was over 10 µM and the IC50 (EHMT1) was over 10 µM.

In the case of `CCN(CC)Cc1cn(-c2cc(Nc3nc(C)cc(NC)n3)ccc2OC)nn1` [Compound 143], the IC50 [1] is reported as 1 to 10 µM and the IC50 (EHMT1) is reported as 0.1 to 1 µM.

`CNc1cc(C)nc(Nc2ccc(OC)c(-n3cc4cc(C)ccc4n3)c2)n1` [Compound 144] showed an IC50 [1] of over 10 µM and an IC50 (EHMT1) of 1 to 10 µM.

For `CNc1cc(C)nc(Nc2ccc(OC)c(-n3cc4cc(C5CC5)ccc4n3)c2)n1` [Compound 145], the IC50 [1] was over 10 µM and the IC50 (EHMT1) was over 10 µM.
